Experimental data taken from paper PMC12040169 (PLOS Biology, 2025).

Test: in vitro
Conditions: human, hela cells, % viability

| SMILES | viability at 28.5 h, 10 µM [%] |
| --- | --- |
| Cn1c(N)c(C(=O)NCC2CCCO2)c2nc3ccccc3nc21 (stereo not shown) [CBK269342] | 96.8 |
| CCN1CCN(c2ccc(NC(=O)c3cc(-n4cnnc4)ccc3Cl)cc2Cl)CC1 [CBK269343] | 88.1 |
| COc1ccccc1NC(=O)Cn1c(=O)oc2cc(Cl)ccc21 [CBK269344] | 94.6 |
| Cc1cc(C)n(C(=O)CCNS(=O)(=O)c2ccc(Cl)cc2)n1 [CBK269348] | 111 |
| O=C(CSc1nc(=O)cc(O)[nH]1)N1CCc2ccccc21 [CBK269350] | 88.7 |
| O=C(NCCNC(=O)c1ccccc1I)c1ccccn1 [CBK269357] | 89.4 |
| COc1ccc(NC2=NC(=O)CC(C(=O)Nc3ccc(C)c(C)c3)N2)cc1 (stereo not shown) [CBK269359] | 104 |
| CSc1nsc(SCC(=O)N(c2ccccc2)c2ccccc2)n1 [CBK269361] | 95.3 |
| Cc1nc(C)n(CCc2nc3ccccc3[nH]2)n1 [CBK269364] | 105 |
| CCC1CCCCN1Cc1nc2c(c(=O)n(C)c(=O)n2C)n1CCCO (stereo not shown) [CBK269365] | 91.8 |
| Cn1c(=O)[nH]c(=O)c2c1nc(N1CCOCC1)n2CCCSc1nc2ccccc2s1 [CBK269368] | 92.7 |
| O=C(NCCCNC(=O)c1ccc(Cl)cc1Cl)c1ccncc1 [CBK269372] | 89.7 |
| CCN(CC(=O)N1CCN(C)CC1)S(=O)(=O)c1ccc(OC)cc1 [CBK269374] | 89.2 |
| COc1ccc2ccccc2c1CNc1ccc(N2CCOCC2)c(C(=O)O)c1 [CBK269376] | 94.1 |
| COCCn1c(CN2CCC(Cc3ccccc3)CC2)nc2c1c(=O)n(C)c(=O)n2C [CBK269378] | 99.1 |
| Cn1c(=O)c2c(nc(CN3CCC(Cc4ccccc4)CC3)n2CCN2CCOCC2)n(C)c1=O [CBK269380] | 100 |
| COc1ccc(S(=O)(=O)NC(C)C(=O)NCc2cccnc2)cc1Cl (stereo not shown) [CBK269384] | 95.8 |
| CS(=O)(=O)N(CC(=O)NCc1ccccn1)c1ccc2c(c1)OCO2 [CBK269385] | 87.2 |
| N#CCSc1nc(-c2cccnc2)ccc1C(=O)O [CBK269387] | 106 |
| FC(F)(F)c1cc(-c2ccccc2)nc2onc(OCCN3CCOCC3)c12 [CBK269392] | 90.9 |
| OCc1cc(Cl)c(Cl)c(CO)c1O [CBK269397] | 95.5 |
| COc1ccccc1-c1noc(C2CCN(S(=O)(=O)c3ccc(F)cc3)CC2)n1 [CBK269401] | 92.9 |

| SMILES | viability at 28.5 h, 10 µM [%] |
| --- | --- |
| O=C(O)CCN1CCN(S(=O)(=O)c2ccccc2)CC1 [CBK269402] | 106 |
| O=C(Nc1ccc(Cl)cc1)Nc1cccc(C(=O)O)c1 [CBK269404] | 98.7 |
| O=C(CSc1ncnc2c1cnn2-c1ccccc1)Nc1ccccc1 [CBK269408] | 96.4 |
| Cc1ccc2nsnc2c1NC(=O)CSc1nccn1C [CBK269411] | 104 |
| Cc1ccc(C2c3c(O)n[nH]c3CC(C)(O)C2C(=O)OCc2ccccc2)cc1 (stereo not shown) [CBK269417] | 92.8 |
| Cc1c(NC(=O)CSc2nncn2C)ccc2nsnc12 [CBK269418] | 104 |
| Cc1nnc(SCCn2c(N3CC(C)CC(C)C3)nc3c2c(=O)n(C)c(=O)n3C)s1 (stereo not shown) [CBK269419] | 100 |
| Cc1cccc(NC(=O)NCc2ccccn2)c1 [CBK269422] | 92.3 |
| CN1CCN(c2ccc(NC(=O)c3cc([N+](=O)[O-])ccc3N3CCOCC3)cc2)CC1 [CBK269425] | 95.6 |
| CC(Nc1nc(N2CCN(CCO)CC2)nc2ccccc12)c1ccccc1 (stereo not shown) [CBK269427] | 106 |
| O=C(NCCCNC(=O)c1ccc(Br)o1)c1ccccn1 [CBK269430] | 107 |
| COC(=O)c1c(NC(=O)C(=O)NCc2ccccn2)sc2c1CCC2 [CBK269431] | 94.6 |
| CN(CC(=O)C(C#N)c1ccccc1)Cc1ccccc1 (stereo not shown) [CBK269432] | 96.8 |
| COc1cccc2cc(C(=O)C3=C(O)C(=O)N(CCN4CCOCC4)C3c3cccs3)oc12 (stereo not shown) [CBK269433] | 101 |
| CS(=O)(=O)N(Cc1ccco1)Cc1cc2ccccc2nc1O [CBK269434] | 111 |
| N#CC1=C(Nc2ccccc2)Oc2cc(N)ccc2C1c1cccnc1 (stereo not shown) [CBK269435] | 100 |
| CCN(CC(=O)N1CCN(Cc2ccc3c(c2)OCO3)CC1)S(=O)(=O)c1ccccc1 [CBK269436] | 92.3 |
| Cn1c(=O)c2c(nc(CN3CCN(C(=O)c4ccco4)CC3)n2Cc2ccccc2)n(C)c1=O [CBK269437] | 93 |
| Cc1cc(Cl)ccc1NC(=O)CN1CCN(Cc2ccccc2)CC1 [CBK269438] | 93.6 |
| O=C(Cn1c(-c2cncs2)nc2ccccc21)Nc1ccc(C(=O)N2CCCCC2)cc1 [CBK269439] | 102 |
| CN(Cc1ccccc1)Cc1nc2c([nH]1)c(=O)[nH]c(=O)n2C [CBK269442] | 106 |
| Cc1ccc(S(=O)(=O)N2CCN(CCC(=O)O)CC2)cc1 [CBK269443] | 97.1 |

| SMILES | viability at 28.5 h, 10 µM [%] |
| --- | --- |
| O=C(O)c1ccc(NC(=O)c2ncn(-c3ccccc3)n2)cc1 [CBK269445] | 97.7 |
| O=c1c2c3c(sc2ncn1CC(O)CO)CCCC3 (stereo not shown) [CBK269448] | 94.8 |
| COc1ccc(Br)cc1CNCc1ccc(C(=O)O)cc1 [CBK269449C] | 96.2 |
| COc1ccc(N2CCN(Cc3nc4c(c(=O)n(C)c(=O)n4C)n3C(C)C(C)=O)CC2)cc1 (stereo not shown) [CBK269453] | 88.7 |
| CN(C)CC(=O)Nc1ccc(Oc2ccc(Cl)cc2)cc1 [CBK269459C] | 94.9 |
| O=S(=O)(NCc1nc2ccccc2[nH]1)c1ccccc1 [CBK269460] | 94.6 |
| Cn1c(=O)n(C)c2cc(CNc3ccc(N4CCOCC4)c(C(=O)O)c3)ccc21 [CBK269463] | 84.7 |
| O=c1c2c3nc4ccccc4nc3n(CCc3ccccc3)c2ncn1C1CCCC1 [CBK269464] | 105 |
| COc1ccc(N2CCN(Cc3nc4c(c(=O)n(C)c(=O)n4C)n3CC(C)=O)CC2)cc1 [CBK269465] | 103 |
| CCOC(=O)CSc1nc(C)cc(Oc2ccc(=O)n(C)n2)n1 [CBK269476] | 101 |
| Cc1ccc(C(=O)NCCCNC(=O)c2ccncc2)cc1 [CBK269477] | 86 |
| Cc1[nH]c2ccccc2c1C(CC(=O)c1ccc(Br)cc1)C(=O)O (stereo not shown) [CBK269480] | 90.9 |
| O=C1NC2CCCCC2NC1CC(=O)N1CCN(Cc2ccccc2)CC1 (stereo not shown) [CBK269484] | 92.5 |
| N#Cc1c(NC(=O)C(=O)NCc2cccnc2)sc2c1CCCC2 [CBK269485] | 91 |
| COC(=O)c1ccc(NC(=O)c2ccc(-n3cccn3)cc2)cc1 [CBK269486] | 90.7 |
| Cc1ccccc1Cn1c(CN2CCN(c3ccccc3)CC2)nc2c1c(=O)n(C)c(=O)n2C [CBK269488] | 94.6 |
| Fc1ccc(-c2cc(C(F)(F)F)nc(NCC3CCCO3)n2)cc1 (stereo not shown) [CBK269492] | 89.1 |
| Cc1cccnc1NC(=O)c1ccc(NC(C)C)c([N+](=O)[O-])c1 [CBK269494] | 86.1 |
| O=C(Nc1ccc(N2CCN(C(=O)c3ccccc3F)CC2)cc1)c1nc[nH]n1 [CBK269497] | 107 |
| COc1ccc(C(=O)COc2nc3c(C(F)(F)F)cc(C4CC4)nc3o2)cc1 [CBK269498] | 87 |
